Source: patent publication US6849596B1, “Regulatory/unfolding peptides of ezrin” (priority 1999, dated 2005)

Experiments:
[1] = test system: human Peripheral Blood Mononuclear Cells; experiment: In vitro activation of human PBMC, tritiated thymidine incorporation; format: cell-based; conditions: three days, Control 370
Method: Peripheral Blood Mononuclear Cells (PBMC) were separated from the peripheral blood of a […] donor using the standard method of fractionation in a ficoll gradient. The PBMC were suspended in culture medium containing RPMI1640 medium plus 10% fetal calf serum, 1 mM L-glutamin and antibiotics (BM). The cell suspension was placed in wells of a 96 hole microwell plate for cell cultivation, (100 microliters of suspension containing 100,000 cells per well). […] The negative control well contained BM but no peptide. The plate was incubated at 37° C. for three days then radioactive ^3H thymidine was added to a final concentration of 1 microcurie per ml. The incorporation of ^3H thymidine into the DNA of the cells was measured using a betacounter using standard procedures. The experiment was repeated twice and the results expressed as an average of the two experiments in radioactive counts per minute.

activated macrophages = experiment: Induction of activated macrophages in mice (peritoneal exsudate); format: in vivo; conditions: for activity in increasing activated macrophages relative to HEP1: 1.0 microgram peptide/mouse; for Activated macrophages as a percent of total number of cells: 1.0 microgram peptide/mouse injected abdominally, after 24 hours, saline 1.9
Method: Groups of three mice (CDAxC57B1)F1 weighing 22-24 g were injected abdominally with each peptide solution of 1.0 microgram of peptide dissolved in 0.5 ml of physiological saline. After 24 hours the animals were killed using neck vertebrae dislocation and 5 ml of Hanks solution was injected into the abdomen. The abdomen was massaged for 30 seconds and then the peritoneal liquid was collected. The collected liquid was filtered using a nylon filter into siliconised tubes containing 1.5 mg/ml EDTA. The number of nucleus containing cells in […] of filtrate were then assessed under microscopic examination using a Nihon hemocytometer. The cells were pelleted by centrifugation for 5 minutes at 800 g, the pellet was resuspended in fetal calf serum, the cell suspension was dropped on to a glass microscope slide and dried then fixed in methanol and stained with Romanovski's colouring agent. Morphological analysis of the cells of the peritoneal exsudate were performed using an Opton optical microscope at 1600 magnifications. The number of lymphocytes, resting macrophages, activated macrophages, granulocytes and other cell types were assessed.

[2] = test system: antibody forming cells against sheep erythocytes (SRBC); experiment: Antibody forming cells against sheep erythocytes (SRBC) in mice, plaque count; format: in vivo; conditions: four days after SRBC, thirty mice per data point
Method: Activity of Hepreceptor Peptides Enhancing the Antibody-Dependent Cytotoxic Response in […] to Sheep Red Blood Cells (SRBC) in Mice
The influence of Hepreceptor peptides on the activation of antibody forming cells against sheep erythocytes (SRBC) in Mice (CBA-C57B1 Fi hybrids. 2 months old, weight 18-22 grams) was determined. Mice were first injected intraperitoneally using either 0.5 ml sterile saline as a control or Hepreceptor peptides in the same volume of saline. 30 minutes after the injection of Hepreceptor peptides, a cell suspension containing 5 million SRBC was administered intraperitoneally to each mouse. Four days after the immunisation, the mice were killed by cervical dislocation and the spleens were obtained aseptically. Each spleen was homogenised in 2 ml of Medium 199, then 100 microliters of this suspension was put into 1 ml of prepared agarose in Medium 199 (stored in water bath at 48° C.), SRBC suspension was added, resulting in a final concentration of 1% agarose. The Im1 of agarose-cell mixture was agitated then transferred to petri dish to set. When the agarose became solid, the petri dish was incubated for 1 hour at 37° C. then 0.5 ml of 1-in-20 diluted guinea pig serum in Medium 199 was added on top of agarose gel as a source of complement. The incubation was continued for another 1 hour. The dishes were then visualised using an 8×binocular microscope and the number of plaques counted (each plaque equivalent to one antibody secreting mouse spleen cell). The results were expressed both as the number of antibody secreting cells per one million nucleated spleen cells and the number of antibody secreting cells per whole spleen.
Averaged data (from thirty mice per data point) of the number of antibody forming cells per one million nucleated spleen cells. The data was re-based relative to 100 for each control group.

Salmonella typhimurium = experiment: Protection of mice from acute Salmonella typhimurium infection; format: in vivo; conditions: control 0%
Method: Laboratory mice (CBAxC57B1 F1 hybrids) were split into groups of five which either received 0.5 ml saline or 0.5 ml saline plus various concentrations of different Hepreceptor peptides (1, 10 or 100 nanograms). 24 hours later the mice were acutely infected with Salmonella typhimurium (10,000 or 100,000 bacteria injected intraperitoneally per mouse). The percent of each group of mice surviving after 20 days was recorded (lethally infected control animals were dead within three days of infection).
Percent of mouse group surviving after 20 days infection

[3] = test system: IgG serum antibody response to Ovalbumin; experiment: Adjuvant activity: IgG serum antibody response to Ovalbumin in mice; format: in vivo; conditions: for IgG response recorded as OD: 50 micrograms Ovalbumin, two weeks, sera 1 to 100; for IgG response recorded as OD then rebased relative to 100 for each control: control = 100
Method: Adjuvant Activity of Hepreceptor Peptides Enhancing the IgG Serum Antibody Response to Ovalbumin in Mice
The IgG response in mice two weeks after an injection of 50 micrograms of Ovalbumin plus various concentrations of different hepreceptor peptides was determined. IgG response was measured by Optical Density (OD) of a 1 to 100 dilution of mouse sera in the presence of Ovalbumin.
IgG response recorded as OD
IgG response recorded as OD then data rebased relative to 100 for each control

[4] = IP injection 1 microgram per mouse
[5] = IP injection 10 micrograms per mouse
[6] = 10,000 bacteria per mouse, 1 nanogram peptide per mouse 24 hours before
[7] = 10,000 bacteria per mouse, 10 nanograms peptide per mouse
[8] = 10,000 bacteria per mouse, 100 nanograms peptide per mouse
[9] = 100,000 bacteria per mouse, 1 nanogram peptide per mouse
[10] = 100,000 bacteria per mouse, 10 nanograms peptide per mouse
[11] = 100,000 bacteria per mouse, 100 nanograms peptide per mouse
[12] = IP injection 0.01 micrograms per mouse
[13] = IP injection 0.1 micrograms per mouse

Substance	incorporation of 3H thymidine ([1]; Peptide 0.0001 micro g/ml)	incorporation of 3H thymidine ([1]; Peptide 0.0003 micro g/ml)	incorporation of 3H thymidine ([1]; Peptide 0.001 micro g/ml)	incorporation of 3H thymidine ([1]; Peptide 0.003 micro g/ml)	incorporation of 3H thymidine ([1]; Peptide 0.01 micro g/ml)	incorporation of 3H thymidine ([1]; Peptide 0.03 micro g/ml)	incorporation of 3H thymidine ([1]; Peptide 0.1 micro g/ml)	incorporation of 3H thymidine ([1]; Peptide 0.3 micro g/ml)	incorporation of 3H thymidine ([1]; Peptide 1 micro g/ml)	incorporation of 3H thymidine ([1]; Peptide 3 micro g/ml)	incorporation of 3H thymidine ([1]; Peptide 10 micro g/ml)	number of antibody forming cells per one million nucleated spleen cells, re-based relative to 100 for control [2, 4]	number of antibody forming cells per one million nucleated spleen cells, re-based relative to 100 for control [2, 5]	IgG response recorded as OD [3, 12] [OD]	IgG response recorded as OD then rebased relative to 100 for each control [3, 12]	IgG response recorded as OD [3, 13] [OD]	IgG response recorded as OD then rebased relative to 100 for each control [3, 13]	IgG response recorded as OD [3, 4] [OD]	IgG response recorded as OD then rebased relative to 100 for each control [3, 4]	IgG response recorded as OD [3, 5] [OD]	other results
RETVEREKE (Hepreceptor peptide) [Rupe614]	464 radioactive counts per minute	503 radioactive counts per minute	550 radioactive counts per minute	752 radioactive counts per minute	607 radioactive counts per minute	538 radioactive counts per minute	596 radioactive counts per minute	635 radioactive counts per minute	600 radioactive counts per minute	499 radioactive counts per minute	412 radioactive counts per minute	–	–	–	–	–	–	–	–	–	–
KRRETVER (Hepreceptor peptide) [Rupe411]	385 radioactive counts per minute	510 radioactive counts per minute	702 radioactive counts per minute	598 radioactive counts per minute	532 radioactive counts per minute	500 radioactive counts per minute	499 radioactive counts per minute	486 radioactive counts per minute	468 radioactive counts per minute	420 radioactive counts per minute	390 radioactive counts per minute	–	–	–	–	–	–	–	–	–	activity in increasing activated macrophages relative to HEP1 (activated macrophages): significantly more active than HEP1; Activated macrophages as a percent of total number of cells (activated macrophages): 5.5%
EREKEQMMREKEEL (Hepreceptor peptide) [Rupe1024]	–	–	–	–	–	–	–	–	–	–	–	401	397	0.250	164	0.262	172	0.489	322	0.445	Percent of mouse group surviving after 20 days infection (Salmonella typhimurium; [6]): 40%; Percent of mouse group surviving after 20 days infection (Salmonella typhimurium; [7]): 40%; Percent of mouse group surviving after 20 days infection (Salmonella typhimurium; [8]): 40%; Percent of mouse group surviving after 20 days infection (Salmonella typhimurium; [9]): 0%; Percent of mouse group surviving after 20 days infection (Salmonella typhimurium; [10]): 20%; Percent of mouse group surviving after 20 days infection (Salmonella typhimurium; [11]): 40%; IgG response recorded as OD then rebased relative to 100 for each control [3, 5]: 293
TEKKRRETVER (Hepreceptor peptide) [Rupe111]	483 radioactive counts per minute	483 radioactive counts per minute	710 radioactive counts per minute	665 radioactive counts per minute	537 radioactive counts per minute	642 radioactive counts per minute	633 radioactive counts per minute	668 radioactive counts per minute	529 radioactive counts per minute	486 radioactive counts per minute	470 radioactive counts per minute	–	–	–	–	–	–	–	–	–	activity in increasing activated macrophages relative to HEP1 (activated macrophages): significantly more active than HEP1; Activated macrophages as a percent of total number of cells (activated macrophages): 4.3%
EREKE (Hepreceptor peptide) [Rupe1014]	–	–	–	–	–	–	–	–	–	–	–	202	325	0.232	183	0.231	182	0.477	376	0.508	IgG response recorded as OD then rebased relative to 100 for each control [3, 5]: 400
TEKKR (Hepreceptor peptide) [Rupe15]	–	–	–	–	–	–	–	–	–	–	–	255	134	–	–	–	–	–	–	–	Percent of mouse group surviving after 20 days infection (Salmonella typhimurium; [6]): 20%; Percent of mouse group surviving after 20 days infection (Salmonella typhimurium; [7]): 40%; Percent of mouse group surviving after 20 days infection (Salmonella typhimurium; [8]): 40%; Percent of mouse group surviving after 20 days infection (Salmonella typhimurium; [9]): 20%; Percent of mouse group surviving after 20 days infection (Salmonella typhimurium; [10]): 20%; Percent of mouse group surviving after 20 days infection (Salmonella typhimurium; [11]): 0%
TEKKRRETV (Hepreceptor peptide) [Rupe19]	426 radioactive counts per minute	602 radioactive counts per minute	718 radioactive counts per minute	756 radioactive counts per minute	545 radioactive counts per minute	586 radioactive counts per minute	537 radioactive counts per minute	563 radioactive counts per minute	509 radioactive counts per minute	502 radioactive counts per minute	517 radioactive counts per minute	–	–	–	–	–	–	–	–	–	–
KEELMLRLQDYEE (Hepreceptor peptide) [Rupe2032]	–	–	–	–	–	–	–	–	–	–	–	236	232	0.509	401	0.606	477	0.327	257	0.203	IgG response recorded as OD then rebased relative to 100 for each control [3, 5]: 160
